Assay results: US20050267166A1, “Continuous dosing regimen” (priority 2004, published 2005)

How the values were obtained:
[1] = system: M5076 transplantable murine reticulum cell sarcoma; settings: for antitumor activity in the M5076 model: in words; for ILS: comparator drugs, dose not given
[2] = system: HCT-15 human colon carcinoma; experiment: HCT-15 human colon carcinoma xenografts; assay type: in vivo; settings: in words
Text: HCT-15 is a human colon carcinoma derived cell line. It is MDR positive, and expresses both mutant p53 and oncogenic K-ras. The HCT-15 cell line has one of the highest levels of mdr-1/P-glycoprotein expression of cells from the NCI tumor cell line panel.
Effect of Cytotoxic Agents on the Growth of HCT-15 Human Colon Carcinoma Xenografts

[3] = system: C26 colon tumors; experiment: C26 colon tumors grown in the flank of CDF-1 mice; assay type: in vivo; settings: comparator, regimen not given
[4] = system: NCI-H460 human non-small cell lung carcinoma; experiment: NCI-H460 xenograft model; assay type: in vivo; settings: in words
Text: NCI-H460 is a human non-small cell lung carcinoma derived cell line. It is MDR negative, has wild type p53, and contains an oncogenic K-ras mutation.

[5] = biological target: biotinylated bovine brain tubulin

Row | Ki ([5]; competition of [3H]colchicine) [µM] | displacement of [3H]colchicine from the colchicine site of tubulin β-subunits ([5]; in words) | Structure (SMILES) | antitumor activity in the M5076 model [1] | ILS [1] [%] | efficacy in HCT-15 xenografts [2] | efficacy against C26 colon tumors [3] | efficacy in the NCI-H460 xenograft model [4]
1 | – | – | O=P1(N(CCCl)CCCl)NCCCO1 (stereo not shown) [cyclophosphamide] | sensitive | – | – | – | –
2 | – | – | COc1cccc2c1C(=O)c1c(O)c3c(c(O)c1C2=O)C[C@@](O)(C(=O)CO)C[C@@H]3O[C@H]1C[C@H](N)[C@H](O)[C@H](C)O1 [doxorubicin] | only marginally active | 13 | – | – | –
3 | – | – | CC(=O)O[C@H]1C(=O)[C@@]2(C)[C@H]([C@H](OC(=O)c3ccccc3)[C@]3(O)C[C@H](OC(=O)[C@H](O)[C@@H](NC(=O)c4ccccc4)c4ccccc4)C(C)=C1C3(C)C)[C@]1(OC(C)=O)CO[C@@H]1C[C@@H]2O [paclitaxel, reference compound] | resistant | – | not efficacious | not efficacious | lacked activity
4 | > 100 | do not displace | CC[C@]1(O)C[C@@H]2CN(CCc3c([nH]c4ccccc34)[C@@](C(=O)OC)(c3cc4c(cc3OC)N(C)[C@H]3[C@@](O)(C(=O)OC)[C@H](OC(C)=O)[C@]5(CC)C=CCN6CC[C@]43[C@@H]65)C2)C1 [vinblastine] | – | – | – | – | –
5 | – | – | CC[C@]1(O)C[C@H]2CN(CCc3c([nH]c4ccccc34)[C@@](C(=O)OC)(c3cc4c(cc3OC)N(C=O)[C@H]3[C@@](O)(C(=O)OC)[C@H](OC(C)=O)[C@]5(CC)C=CCN6CC[C@]43[C@@H]65)C2)C1 [vincristine, reference compound] | only marginally active | 17 | not efficacious | – | lacked activity
